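Exposure lasted 48 hours, with cells grown in 96-well plates and compounds tested at five concentrations. GI50 = concentration required for 50% inhibition of growth.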 Calls of active or inactive are those of the source. Cut-off read from the data, not from the text of the source: active = GI50 up to about 1.1 µM and inactive = higher.
Experiments:
Assay in all cases: growth of human tumour cells (NCI), 48 h
U-251 = system: U-251
KM12 = system: KM12
MDA-MB-435 = system: MDA-MB-435
SR = system: SR
786-0 = system: 786-0
MDA-MB-231 = system: MDA-MB-231
OVCAR-5 = system: OVCAR-5
PC-3 = system: PC-3
COLO 205 = system: COLO 205
CCRF-CEM = system: CCRF-CEM
Hs-578T = system: Hs-578T
OVCAR-4 = system: OVCAR-4
HOP-92 = system: HOP-92
SNB-78 = system: SNB-78
MCF7 = system: MCF7
RPMI-8226 = system: RPMI-8226
OVCAR-8 = system: OVCAR-8
HCT-116 = system: HCT-116
SF-539 = system: SF-539
RXF 393 = system: RXF 393

Measured: GI50

CC[C@@]1(OC(=O)C(N)CCCCN)C(=O)OCc2c1cc1n(c2=O)Cc2cc3ccccc3nc2-1 (stereo not given in full)
inactive: MDA-MB-231 1.53 µM | Hs-578T 4.52 µM
active: U-251 0.0161 µM | KM12 0.35 µM | MDA-MB-435 0.293 µM | SR < 0.01 µM | 786-0 0.0148 µM | OVCAR-5 0.238 µM | PC-3 0.171 µM | COLO 205 0.389 µM | CCRF-CEM < 0.01 µM | OVCAR-4 0.332 µM | HOP-92 0.179 µM | SNB-78 0.372 µM | MCF7 0.021 µM | RPMI-8226 0.0327 µM | OVCAR-8 0.0502 µM | HCT-116 0.0415 µM | SF-539 0.0203 µM | RXF 393 0.122 µM

From ChEMBL document CHEMBL1201862, “PubChem BioAssay data set” (2004)
